Results published in PubChem BioAssay (NCI).
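1) Cells in 96-well plates. 2) Compound, 48 h, 5 concentrations. 3) Linear interpolation between surrounding doses. 4) Unreached endpoint = highest concentration. The concentration for full growth arrest is given as TGI.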

Experiments:
Test in all cases: growth of human tumour cells (NCI), 48 h
[1] = system: CAKI-1 renal
[2] = system: COLO 205 colon
[3] = system: DU-145 prostate
[4] = system: EKVX NSCLC
[5] = system: HCC-2998 colon
[6] = system: HT29 colon
[7] = system: KM12 colon
[8] = system: MALME-3M melanoma
[9] = system: MDA-N
[10] = system: NCI-H23 lung
[11] = system: OVCAR-4 ovarian
[12] = system: OVCAR-8 ovarian
[13] = system: RPMI-8226 leukemia
[14] = system: SF-539 CNS
[15] = system: SK-MEL-28 melanoma
[16] = system: SNB-19 CNS
[17] = system: SW-620 colon
[18] = system: UACC-62 melanoma
[19] = system: TK-10 renal
[20] = system: MDA-MB-231 breast

How did the TGI [1] turn out when `COc1ccc(NC(=S)c2ccc(CN3CCCCC3)s2)cc1` was run?
The TGI was 77.3 µM.

And the TGI [2]?
The TGI was 30.8 µM.

And the TGI [3]?
The TGI was > 100 µM.

And the TGI [4]?
The TGI was 41.3 µM.

What about the TGI [5] of the same compound?
Its TGI is 32.3 µM.

And the TGI [6]?
Its TGI is 18.3 µM.

What about the TGI [7] of the same compound?
The TGI was 35.7 µM.

And the TGI [8]?
The TGI was 37.6 µM.

And the TGI [9]?
The TGI was 36.7 µM.

And the TGI [10]?
Its TGI is 29.5 µM.

And the TGI [11]?
The TGI was > 100 µM.

What about the TGI [12] of the same compound?
Its TGI is 45.4 µM.

And the TGI [13]?
Its TGI is 74.7 µM.

What about the TGI [14] of the same compound?
The TGI was > 100 µM.

And the TGI [15]?
Its TGI is 33.8 µM.

And the TGI [16]?
Its TGI is 43.9 µM.

What about the TGI [17] of the same compound?
Its TGI is 42.4 µM.

What about the TGI [18] of the same compound?
Its TGI is 32.8 µM.

For `COCCOCOC(CCCCO)c1cc(C)c(O[Si](C)(C)C(C)(C)C)c(C)c1` (stereo not given), which TGI [2] is on record?
The TGI was 22.3 µM.

And the TGI [4]?
The TGI was 22.6 µM.

What about the TGI [5] of the same compound?
The TGI was 19.8 µM.

And the TGI [7]?
Its TGI is 18.6 µM.

What about the TGI [8] of the same compound?
The TGI was 13.3 µM.

And the TGI [10]?
Its TGI is 18.7 µM.

And the TGI [12]?
Its TGI is 18.7 µM.

And the TGI [13]?
The TGI was 11.6 µM.

And the TGI [14]?
Its TGI is 26 µM.

What about the TGI [15] of the same compound?
The TGI was 25.2 µM.

What about the TGI [16] of the same compound?
Its TGI is 19.2 µM.

And the TGI [17]?
Its TGI is 21.1 µM.

What about the TGI [19] of the same compound?
Its TGI is 27.3 µM.

What about the TGI [18] of the same compound?
The TGI was 25.4 µM.

What does the source list for `COc1cc(-c2cccs2)sc1-c1cccs1`?
TGI [2]: 27.3 µM; TGI [4]: > 100 µM; TGI [5]: > 100 µM; TGI [6]: 53.3 µM; TGI [7]: > 100 µM; TGI [8]: > 100 µM; TGI [10]: > 100 µM; TGI [11]: > 100 µM; TGI [12]: > 100 µM; TGI [13]: > 100 µM; TGI [14]: > 100 µM; TGI [15]: > 100 µM; TGI [16]: > 100 µM; TGI [17]: > 100 µM; TGI [19]: > 100 µM; TGI [18]: > 100 µM

Which TGI [1] does the source give for `O=c1cc(-c2ccc3c(c2)OCO3)[nH]c2cc3c(cc12)OCO3` here?
Its TGI is > 100 µM.

What about the TGI [2] of the same compound?
The TGI was > 100 µM.

And the TGI [4]?
Its TGI is > 100 µM.

And the TGI [5]?
Its TGI is > 100 µM.

And the TGI [6]?
Its TGI is > 100 µM.

What about the TGI [7] of the same compound?
Its TGI is > 100 µM.

And the TGI [8]?
Its TGI is 97.8 µM.

What about the TGI [10] of the same compound?
The TGI was > 100 µM.

What about the TGI [11] of the same compound?
The TGI was > 100 µM.

What about the TGI [12] of the same compound?
Its TGI is 78.1 µM.

What about the TGI [13] of the same compound?
The TGI was > 100 µM.

What about the TGI [14] of the same compound?
Its TGI is 69.1 µM.

And the TGI [15]?
Its TGI is > 100 µM.

What about the TGI [16] of the same compound?
Its TGI is > 100 µM.

What about the TGI [17] of the same compound?
The TGI was > 100 µM.

What about the TGI [19] of the same compound?
The TGI was > 100 µM.

And the TGI [18]?
Its TGI is > 100 µM.

With `O=C(Nc1c(O)[nH]c(=S)[nH]c1=O)c1ccccc1` as the compound, how does the TGI [1] read?
The TGI was > 100 µM.

What about the TGI [2] of the same compound?
The TGI was > 100 µM.

And the TGI [6]?
Its TGI is > 100 µM.

And the TGI [7]?
The TGI was > 100 µM.

And the TGI [8]?
The TGI was > 100 µM.

What about the TGI [10] of the same compound?
The TGI was > 100 µM.

And the TGI [11]?
The TGI was > 100 µM.

What about the TGI [12] of the same compound?
Its TGI is > 100 µM.

What about the TGI [13] of the same compound?
The TGI was > 100 µM.

What about the TGI [14] of the same compound?
Its TGI is > 100 µM.

And the TGI [15]?
Its TGI is > 100 µM.

What about the TGI [16] of the same compound?
Its TGI is > 100 µM.

And the TGI [17]?
The TGI was > 100 µM.

What about the TGI [19] of the same compound?
The TGI was > 100 µM.

And the TGI [18]?
Its TGI is > 100 µM.

For `O=C1/C(=C\c2ccc(Cl)cc2Cl)Sc2scc(-c3ccc(O)c(O)c3)[n+]21`, which TGI [1] is on record?
Its TGI is 43.4 µM.

And the TGI [2]?
Its TGI is 40.5 µM.

What about the TGI [3] of the same compound?
The TGI was 41.9 µM.

What about the TGI [4] of the same compound?
The TGI was 49 µM.

And the TGI [5]?
The TGI was 40.9 µM.

And the TGI [6]?
Its TGI is 32.6 µM.

What about the TGI [7] of the same compound?
The TGI was 33.9 µM.

What about the TGI [20] of the same compound?
Its TGI is 61.2 µM.

And the TGI [9]?
The TGI was 60.1 µM.

And the TGI [10]?
The TGI was 31.3 µM.

And the TGI [11]?
Its TGI is 35.8 µM.

And the TGI [12]?
Its TGI is 35.2 µM.

And the TGI [14]?
The TGI was 45.2 µM.

And the TGI [15]?
Its TGI is 31.7 µM.

What about the TGI [16] of the same compound?
The TGI was 48.8 µM.

And the TGI [17]?
Its TGI is 29.7 µM.

And the TGI [19]?
Its TGI is 38.8 µM.

And the TGI [18]?
The TGI was 22.4 µM.

For `CCOC(=O)CCCSCCCC(=O)CCCSCCCC(=O)OCC`, which TGI [2] is on record?
The TGI was > 100 µM.

What about the TGI [3] of the same compound?
The TGI was > 100 µM.

And the TGI [4]?
Its TGI is > 100 µM.

And the TGI [5]?
The TGI was > 100 µM.

And the TGI [6]?
The TGI was > 100 µM.

And the TGI [7]?
Its TGI is > 100 µM.

And the TGI [20]?
Its TGI is > 100 µM.

And the TGI [9]?
The TGI was > 100 µM.

And the TGI [10]?
The TGI was > 100 µM.

What about the TGI [11] of the same compound?
The TGI was > 100 µM.

What about the TGI [12] of the same compound?
Its TGI is > 100 µM.

What about the TGI [14] of the same compound?
Its TGI is > 100 µM.

What about the TGI [15] of the same compound?
Its TGI is > 100 µM.

What about the TGI [16] of the same compound?
Its TGI is > 100 µM.

And the TGI [17]?
Its TGI is > 100 µM.

And the TGI [19]?
The TGI was > 100 µM.

What about the TGI [18] of the same compound?
The TGI was > 100 µM.
